# According to ChEMBL document CHEMBL3507680, “University of Dundee, Gates Library screen for HepG2 cell viability”:
# Assay: Human HepG2 cell viability assay in 384 well format
# Format: toxicity, cell-based
# Parameters: dose 125 nL, time 70.5 hour; concentration not given beside the values
# Settings: HepG2 cells, read-out: Inhibition
row,Structure (SMILES),cytotoxicity at 70.5 h [%]
1,Cc1nc(NCCC23CCCN2CCC3)cc(C2CCNCC2)n1,-7.1
2,Cc1cccc(N2CC[C@@H]3CN(C(=O)c4ccco4)CCO[C@@H]3C2)n1,-13.8
3,CC1CCN(S(=O)(=O)N2C[C@H](c3ccccc3)[C@@H](N)C2)CC1,27.7
4,CC(=O)N1CCc2cc(Cl)cc(Cl)c2C1,-5.27
5,CCOc1cc(C(=O)N2CCCC(c3noc(C)n3)C2)ccn1 (centres undefined),-12.6
6,Cc1nnc([C@@]23CCO[C@@H]2CCN(Cc2scnc2C)C3)o1,-10.2
7,Cc1cncc(C(=O)N[C@@H]2CC[C@@H](N3CCOCC3)[C@@H]2O)c1,-8.5
8,O=C(NCc1ccnc(OCC2CC2)c1)C1Cc2ccccc2O1 (centres undefined),-4.48
9,CCn1cc(CN2CCCC(c3[nH]ncc3-c3ccc(F)cc3)C2)cn1 (centres undefined),-19.8
10,Cn1c(Cn2ccnc2)nnc1C1CCN(C(=O)c2ccoc2)CC1,-7.81
11,CC(C)C(=O)NCCCNC(=O)Nc1cc(-c2ccccc2)ns1,-12.9
12,O=C(O)C1(Oc2ccccc2)CCN(c2ccncc2)CC1,-2.23
13,COCCN1CCC(c2nc3c([nH]2)CCCNC3=O)CC1,-8.24
14,O=C(NCC(O)c1cccs1)c1cccc(Cl)c1 (centres undefined),-2.42
15,O=C1Nc2ccccc2C12CCN(c1nccs1)CC2,-3.17
16,Cc1cccc(CN2CCN(C(=O)N(C)C)[C@@H]3CS(=O)(=O)C[C@@H]32)n1,2.11
17,CS(=O)(=O)N1CCN(C(=O)c2cccc(Cl)c2)CC2(CNC(=O)C2)C1 (centres undefined),-0.473
18,CCNc1ncc(CN2C[C@H](C3CC3)[C@@H](N)C2)cn1,-1.95
19,CNC(=O)C1(c2cnccn2)CCCN1C(=O)c1ccccn1 (centres undefined),8.19
20,COCc1ncn2c1CN(S(=O)(=O)Cc1ccc(C)cc1)CC2,-10.2
21,c1cc(CN2CCO[C@@H]3CNC[C@@H]32)co1,3.81
22,CC(=O)N1CCN(c2cc(C3CN(C(C)=O)CCO3)nc(C)n2)CC1 (centres undefined),-4.45
23,Cc1ccc(CN2CCCn3c(nc(Cn4ccnc4)cc3=O)C2)s1,8.11

row,Structure (SMILES),cytotoxicity at 70.5 h [%]
1,O=C(NC1CC1)[C@@H]1CCO[C@@H]2CCN(Cc3ccco3)C[C@H]21,-13.9
2,CCNc1cc2c(nn1)CCN(C(=O)c1ccnc(-n3ccnc3)c1)C2,-6.16
3,COC(=O)c1ccc(NC(=O)NC2CCc3[nH]ncc3C2)cc1 (centres undefined),1.54
4,Cc1ccn(-c2ccnc(N3CCC(N4CCCCC4)CC3)n2)n1,-13.2
5,COc1cccc(-c2ncc(CN3CCOCC(O)C3)s2)c1 (centres undefined),-6.59
6,COc1ccccc1NC(=O)N1CCCC1c1ccco1 (centres undefined),-0.874
7,Cn1c(=O)cc(C(=O)NC(Cc2ccsc2)c2cccnc2)[nH]c1=O (centres undefined),-3.19
8,Cc1nc[nH]c1CN1CCCC12CCN(c1nc3ccccc3s1)CC2,-1.37
9,CNc1cc(N2CCCC2CNCc2cnc(C)s2)ncn1 (centres undefined),2.89
10,CC(CNC(=O)c1ccn(-c2ccc(F)cc2)n1)Cn1cccn1 (centres undefined),-22.8
11,CCn1nc(C)c2ccn(CC(=O)NC3CCCC3)c(=O)c21,-1.39
12,Cc1nc(CC(=O)N2CCCC2c2nc(-c3ccccc3)no2)cs1 (centres undefined),-3.06
13,CCn1cc(C(=O)Nc2cc(C(=O)OC)ccc2C(=O)OC)cn1,-9
14,COc1cc(C(=O)N2CCCC2CC(=O)c2cnn(C)c2)ccc1F (centres undefined),8.93
15,COCCNC(=O)c1ccc(NCc2csc(C)n2)cc1Cl,-2.04
16,CC(=O)Nc1ccc(CNC(C)c2c(C)nn(C)c2C)cc1 (centres undefined),13.1
17,CCn1nccc1CNC(=O)NC1CCCCC1,6.27
18,CS(=O)(=O)N[C@@H]1CN(C(=O)c2cccnc2)[C@@H]2CCCO[C@@H]21,-5.12
19,O=c1n(Cc2cccc(F)c2)nc2ncccn12,15.8
20,Cc1cc2c(N3CCC(N(C)Cc4cnn(C)c4)CC3)ncnc2s1,-3.32
21,CC(C)c1nn(C)c(N2CCOCC2)c1CNCc1nncn1C,0.87
22,COC1CCCN(C(=O)NCc2ccc(C(=O)N(C)C(C)C)cc2)C1 (centres undefined),25.2
23,O=C(NCCN1CCCC1)c1nc2c(o1)CN(C(=O)c1cccnc1)C2,-1.83

row,Structure (SMILES),cytotoxicity at 70.5 h [%]
1,COCc1ncc(CN2CCC3(CCNC(=O)CC3)CC2)cn1,-5.72
2,COc1ccc(CN2CCOC(CCc3ccnc(N)c3)C2)cc1 (centres undefined),-0.852
3,CN(C)C(=O)N1Cc2nnn(C)c2C(COCC2CC2)C1 (centres undefined),-6.79
4,CN(C)c1cccc(C2CCCN2CCCN2CCOC2=O)c1 (centres undefined),7.84
5,COC(=O)Nc1nc2c(s1)CN(C(=O)NCc1cccs1)CC2,-7.97
6,Cc1ccc2c(c1)C(N(C)C)CC21CCN(CCO)CC1 (centres undefined),-0.704
7,O=C1COC[C@H]([C@H](O)c2ccc(NC(=O)c3ccco3)cc2)N1,-0.619
8,Cc1ccc(N2CCCC(NCc3c(C)noc3C)C2)nn1 (centres undefined),-8.52
9,CC(O)CN1CCN(C(=O)c2cnn(-c3ccccc3F)c2)CC1 (centres undefined),-6.92
10,COc1cccc2c3c(c(=O)[nH]c12)CCO3,3.58
11,CC(=O)N1C[C@@H](c2ccsc2)[C@@H]2CN(CC3CCCCC3)CC[C@@H]21,-5.59
12,Cn1nc(C(=O)NC2CCCC2)cc1NC(=O)C1CC1,-8.78
13,CC1(CNC(=O)NCc2ccsc2)CCCS1 (centres undefined),-8.93
14,Cc1cc(NC(=O)N(CCC#N)CCCN(C)C)ccc1F,-2.44
15,CC1N(c2cnn(C)c2)C(=O)COC12CCN(CC1CC1)CC2 (centres undefined),-3.07
16,COCCCNC(=O)c1ccccc1-n1cc(CN(C)C)cn1,-7.43
17,O=C(Cc1ccc2c(c1)CCO2)N1CCN(c2ccccn2)CC1,2.5
18,CN1CCN(C(=O)CCn2c(C(F)(F)F)cc3cccnc32)CC1,34.4
19,Cc1cnc(N2CCn3cc(CNC(=O)CC4CC4)nc3C2)nc1,25.9
20,COCCN(C/C=C/c1ccccc1)Cc1nccs1,2.82
21,Cc1nsc(NC2CC(=O)N(C(C)(C)C)C2)n1 (centres undefined),11.5
22,O=C(CCC1CCCCC1)NS(=O)(=O)CC1CC1,14.7
23,O=C(NCCNC(=O)c1scnc1Cl)c1ccoc1,5.67

row,Structure (SMILES),cytotoxicity at 70.5 h [%]
1,c1cc(NC2CC3(CCN(Cc4cc[nH]n4)C3)C2)ncn1 (centres undefined),-16.2
2,CN1CCC(C)(CN(C)C(=O)c2ccc(CCC(C)(C)O)cc2)C1 (centres undefined),-1.78
3,Cn1cc(CN2CCCC(CCc3c(F)cccc3F)C2)cn1 (centres undefined),1.58
4,COCc1cc(N2CCN(c3ccc(Cl)cn3)CC2)n2nccc2n1,-0.783
5,O=C(c1ccc(=O)[nH]n1)N1CCc2ccccc21,-0.117
6,Cc1nn(C)c(N2CCOCC2)c1CNC(C)c1ccco1 (centres undefined),10.7
7,Cc1cc(NCc2ccc(S(N)(=O)=O)cc2)nc(C)n1,-13.8
8,CCN(Cc1ccc(C(C)C)cc1)C(=O)c1csc(CN(C)C)n1,7.36
9,Cc1cccc(CN2C[C@@H]3CN(C(=O)c4ccco4)C[C@@H]3C2=O)n1,-13.1
10,CCc1ncc2c(n1)CN(CC1CCCCO1)CC2 (centres undefined),8.28
11,COc1ccc2[nH]c3c(c2c1)CN(c1cc(NCCO)nc(N)n1)CC3,-3.57
12,CCN(Cc1c(C)nn(CC)c1C)S(=O)(=O)c1cnn(C)c1C,14.5
13,N#Cc1cnn(C(=O)COc2ccccc2F)c1N,1.04
14,CC(NC(=O)Nc1nccs1)c1ccncc1 (centres undefined),-10.5
15,O=S(=O)(c1ccc2c(c1)OCCO2)N1CCC(OCc2ccccn2)C1 (centres undefined),-8.08
16,CC(C)n1ncc2c1NC(=O)C(C#N)C21CCCCC1 (centres undefined),-9.51
17,O=C(C[S+]([O-])Cc1cccc(C(F)(F)F)c1)NC1CCCC1 (centres undefined),-8.39
18,CC1(C(=O)N2CCOCC2)CN(CC2CCOCC2)CCO1 (centres undefined),-0.606
19,O=C(Nc1nncs1)N1CCCN(C2CCCCC2)CC1,-12.6
20,CCN1CCn2c(C)cnc2C12CCN(C(=O)N(C)C)CC2,-9.01
21,Cc1cccnc1NCCNC(=O)[C@H]1CNC[C@@H](C(=O)N2CCCC2)C1,0.731
22,Cc1nn(C)c(C)c1C1COCCN1C(=O)c1ccc(Cl)o1 (centres undefined),10.5
23,Cc1cc(C)n(CC(=O)N2Cc3cnc(C(C)(C)C)nc3C2)n1,-4.01

row,Structure (SMILES),cytotoxicity at 70.5 h [%]
1,CC(C)(C)C(=O)N1CCC2(CNS(=O)(=O)c3cnccc3O2)C1 (centres undefined),41.2
2,Cc1ccc(-c2cc(C(=O)NCCN3CCCS3(=O)=O)[nH]n2)o1,-14.9
3,COCCN(C)C(=O)c1cc2c(s1)CCN2C(=O)C1CC1,2.55
4,c1cn(CCn2cnnc2)c(-c2cc3n(n2)CCCNC3)n1,-5.64
5,CC(C)c1nc(N2CCC(N3CCCC(O)C3)CC2)c2cnn(C)c2n1 (centres undefined),1.93
6,CCn1nc(C)c(CNC(=O)NCC(C)(O)c2ccsc2)c1C (centres undefined),-8.94
7,COc1ccc(CCNC(=O)Cn2ncc3c2c(C)nn3C)cc1,-12.7
8,O=C(NCCc1ccn(-c2ccccc2)n1)N1CCCC(CO)C1 (centres undefined),1.65
9,COc1cccc(CCC(=O)N2CCCC(n3cc(C)cn3)C2)c1 (centres undefined),-15.8
10,Cc1nc(C)n(C2CCCN(C(=O)c3cnc[nH]3)C2)n1 (centres undefined),-7.11
11,COCCC(=O)N1CCC2(CCCN2Cc2ccccc2)C1 (centres undefined),-52.9
12,CC(NC(=O)C1CC1)C(=O)N(C)Cc1ccsc1 (centres undefined),-5.83
13,CCN(CC)c1ncnc2c1CCN(C(=O)Cc1ccccn1)CC2,-1.31
14,O=C1[C@H]2CN(c3ncc(F)cn3)C[C@H]2CN1CC1CC1,5.29
15,COCCN(Cc1ccco1)c1ncc(C#N)cc1Cl,20.3
16,c1cc(-c2cncnc2)cc(-c2ccn(CC3CCNC3)n2)c1 (centres undefined),-15.7
17,N#CCCN(CC1CCOC1)Cn1ccc(-c2cccs2)n1 (centres undefined),8.39
18,CNC(=O)c1cccc(C2CNCCN2C(=O)C2CCNCC2)c1 (centres undefined),-5.44
19,O=C(Nc1ccccc1)C1CN(Cc2ccsc2)CC12CCOCC2 (centres undefined),-18.9
20,CCc1nnc2n1CCN(CC(O)CN1CCC(C)CC1)C2 (centres undefined),2.99
21,O=C(Nc1cc(F)ccc1OCC1CCCO1)NC1CC1 (centres undefined),-8.4
22,CS(=O)(=O)N1C[C@@H](F)[C@@H](OCc2nc3ccccc3o2)C1,14.3
